Test results published in patent publication US11555212B2, “Process for the production of sulfated phenolic compounds using modified Escerichia coli” (CysBio ApS, priority 2016, dated 2023).

Tests used:
Type in all cases: cell-based
SULT1A1 human [1] = molecular target: T1, SULT1A1 human (Homo sapiens, UniProt P50225, V223M); test: Production of zosteric acid from pHCA in E. coli expressing a sulfotransferase; conditions: E. coli BL21(DE3)pLysS expressing SULT1A1 Homo sapiens; M9 glucose, 0.1 mM IPTG, 0.1 mM pHCA; four days
T1 construct: expressed in transfected cells; host or cells: E. coli BL21(DE3)pLysS
From the text: (§1) A range of aryl sulfotransferases including SULT1A1 Rattus norvegicus (SEQ ID NO: 1), SULT1A1 Homo sapiens (SEQ ID NO: 2), SULT1A1 Equus caballus (SEQ ID NO: 3), SULT1A1 Sus scrofa domesticus (SEQ ID NO: 4), SULT1A1 Canis lupus familiaris (SEQ ID NO: 5) and SULT1E1 Gallus gallus domesticus (SEQ ID NO: 6) were expressed in Escherichia coli. […]. The nucleotide sequence of the gene encoding SEQ ID NO: 2 was codon optimized for expression in Escherichia coli (GeneArt, Life Technologies) and amplified by PCR using the primers in Table 1. The pETDuet-1 plasmid was digested with restriction endonucleases NcoI and SalI. The PCR products were then individually cloned into the plasmid pETDuet-1 using the Gibson reaction (New England Biolabs). The resulting plasmids were transformed into BL21(DE3)pLysS (Life Technologies).
(§2) The strains were grown in M9 minimal media containing glucose as a carbon source, and 0.1 mM IPTG for induction of gene expression as well as 0.1 mM p-coumaric acid (pHCA). After four days of growth, samples were withdrawn by filtration and analyzed by HPLC.
(§3) The concentration of p-courmaric acid (pHCA) and zosteric acid in the supernatant was quantified by high performance liquid chromatography (HPLC) and compared to chemical standards. HPLC was done on a Thermo setup using a HS-F5 column and mobile phases: 5 mM ammonium formate pH 4.0 (A) and acetonitrile (B) at 1.5 mL min-1, using a gradient elution starting at 5% B. From 0.5 min after injection to 7 min, the fraction of B increased linearly from 5% to 60%, and between 9.5 min and 9.6 the fraction of B decreased back to 5%, and remaining there until 12 min. pHCA and zosteric acid were quantified by measuring absorbance at 277 nm.

[2] = molecular target: T2, SULT1A1 Rattus norvegicus (Rattus norvegicus, UniProt P17988); test: as above; conditions: E. coli BL21(DE3)pLysS expressing SULT1A1 Rattus norvegicus; M9 glucose, 0.1 mM IPTG, 0.1 mM pHCA; four days; culture media, HPLC
T2 construct: 1, 3, 4, 5, and 6 were cloned amplified from liver tissue cDNA; expressed in transfected cells
From the text: as §1, §2, §3

[3] = molecular target: T3, SULT1A1 Canis lupus familiaris (Canis lupus familiaris, UniProt Q29476); test: as above; conditions: E. coli BL21(DE3)pLysS expressing SULT1A1 Canis lupus familiaris; M9 glucose, 0.1 mM IPTG, 0.1 mM pHCA; four days
T3 construct: 1, 3, 4, 5, and 6 were cloned amplified from liver tissue cDNA; expressed in transfected cells; host or cells: E. coli BL21(DE3)pLysS
From the text: as §1, §2, §3

SULT1A1 human [4] = molecular target: T1, SULT1A1 human; test: Percent conversion of substrates by E. coli expressing a sulfotransferase; conditions: E. coli BL21(DE3)pLysS expressing SULT1A1 human; M9; pHCA 100 μM, resveratrol 95 μM or kaempferol 87 μM; overnight 37° C.
Method: as §3
(§4) Different sulfotransferases were examined for their substrate specificities against three substrates. We tested the sulfotransferases mentioned in example 1, as well as additional ones. The genes encoding these were cloned as described in example 1 using the primers shown in the table below from cDNA libraries of the respective organisms, except for the SULT1A1 from rat (Rattus norvegicus) codon-optimized for E. coli (described above). The resulting vectors were transformed into BL21(DE3)pLysS.
(§5) The resulting strains were grown in M9 medium containing either 100 μM pHCA, 95 μM resveratrol or 87 μM kaempferol. The cultures were grown overnight at 37° C., 300 rpm. The following day the supernatants were isolated and examined by HPLC as described in example 1.

SULT1A1 Equus caballus = test: as above; conditions: E. coli BL21(DE3)pLysS expressing SULT1A1 Equus caballus; M9; pHCA 100 μM, resveratrol 95 μM or kaempferol 87 μM; overnight 37° C.
Method: as §3, §4, §5

[5] = molecular target: T2, SULT1A1 Rattus norvegicus; test: as above; conditions: M9, pHCA 100 μM, resveratrol 95 μM or kaempferol 87 μM, overnight 37° C.
Method: as §3, §4, §5

[6] = tested on: SULT1C1 Gallus gallus domesticus; test: as above; conditions: E. coli BL21(DE3)pLysS expressing SULT1C1 Gallus gallus domesticus; M9; pHCA 100 μM, resveratrol 95 μM or kaempferol 87 μM; overnight 37° C.
Method: as §3, §4, §5

[7] = tested on: SULT1E1 Gallus gallus domesticus; test: as above; conditions: E. coli BL21(DE3)pLysS expressing SULT1E1 Gallus gallus domesticus; M9; pHCA 100 μM, resveratrol 95 μM or kaempferol 87 μM; overnight 37° C.
Method: as §3, §4, §5

[8] = molecular target: T3, SULT1A1 Canis lupus familiaris; test: as above; conditions: E. coli BL21(DE3)pLysS expressing SULT1A1 Canis lupus familiaris; M9; pHCA 100 μM, resveratrol 95 μM or kaempferol 87 μM; overnight 37° C.
Method: as §3, §4, §5

[9] = tested on: SULT1A1 Sus scrofa domesticus; test: as above; conditions: E. coli BL21(DE3)pLysS expressing SULT1A1 Sus scrofa domesticus; M9; pHCA 100 μM, resveratrol 95 μM or kaempferol 87 μM; overnight 37° C.
Method: as §3, §4, §5

T3 sequence (Q29476 whole entry): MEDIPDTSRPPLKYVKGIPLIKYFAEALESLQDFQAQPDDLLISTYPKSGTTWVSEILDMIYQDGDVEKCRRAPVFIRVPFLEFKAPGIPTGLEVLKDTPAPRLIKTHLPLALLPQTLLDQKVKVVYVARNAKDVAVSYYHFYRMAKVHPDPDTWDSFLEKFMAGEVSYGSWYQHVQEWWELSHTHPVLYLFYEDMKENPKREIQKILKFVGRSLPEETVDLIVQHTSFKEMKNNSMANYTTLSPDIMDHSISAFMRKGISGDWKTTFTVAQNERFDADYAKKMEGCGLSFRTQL
T1 sequence (P50225 whole entry V223M): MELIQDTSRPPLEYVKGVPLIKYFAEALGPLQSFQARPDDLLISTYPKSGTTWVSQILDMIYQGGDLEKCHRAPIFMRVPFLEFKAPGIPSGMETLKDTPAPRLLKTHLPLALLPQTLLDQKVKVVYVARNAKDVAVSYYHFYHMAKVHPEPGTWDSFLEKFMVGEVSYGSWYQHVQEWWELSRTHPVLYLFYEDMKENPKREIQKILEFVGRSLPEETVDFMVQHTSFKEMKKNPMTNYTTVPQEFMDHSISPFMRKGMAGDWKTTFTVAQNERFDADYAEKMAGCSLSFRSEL
T2 sequence (P17988 whole entry): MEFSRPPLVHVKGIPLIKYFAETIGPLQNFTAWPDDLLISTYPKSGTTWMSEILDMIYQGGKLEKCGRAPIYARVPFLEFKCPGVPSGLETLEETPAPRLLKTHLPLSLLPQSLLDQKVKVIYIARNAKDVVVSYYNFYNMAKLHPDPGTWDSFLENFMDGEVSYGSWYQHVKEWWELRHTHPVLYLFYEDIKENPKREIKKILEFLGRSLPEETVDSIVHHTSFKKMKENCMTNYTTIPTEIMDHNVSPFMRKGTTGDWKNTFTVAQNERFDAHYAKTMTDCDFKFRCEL

SMILES | Zosteric acid formed (SULT1A1 human [1]) | Zosteric acid formed [2] | Zosteric acid formed [3] | pHCA remaining (SULT1A1 human [1]) | pHCA remaining [2] | pHCA remaining [3] | Percent conversion of the substrate (SULT1A1 human [4]) | Percent conversion of the substrate (SULT1A1 Equus caballus) | Percent conversion of the substrate ([5]; E. coli BL21(DE3)pLysS expressing SULT1A1 Rattus norvegicus (Codon-optimized for E. coli)) | Percent conversion of the substrate ([5]; E. coli BL21(DE3)pLysS expressing SULT1A1 Rattus norvegicus) | Percent conversion of the substrate [6] | Percent conversion of the substrate [7] | Percent conversion of the substrate [8] | Percent conversion of the substrate [9]
O=C(O)/C=C/c1ccc(OS(=O)(=O)O)cc1 [Zosteric acid, zosteric acid] | 0.02 mM | 0.10 mM | 0.01 mM |  |  |  |  |  |  |  |  |  |  | 
O=C(O)/C=C/c1ccc(O)cc1 [pHCA, p-coumaric acid] |  |  |  | 0.08 mM | 0.02 mM | 0.10 mM | 39% | 21% | 73% | 93% | 26% | 17% | 34% | 8%
